Laboratory results from ChEMBL document CHEMBL1201862, “PubChem BioAssay data set” (2004).
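Test compounds were applied to cells in 96-well plates for 48 hours at 5 doses. The concentration for 50% growth inhibition is given as GI50.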 Active and inactive are the calls of the source. No stated cut-off is given here; in the data, active = GI50 up to about 1.1 µM and inactive = higher. Peptide text beside a SMILES is read from it.

Experiments:
Assay in all cases: growth of human tumour cells (NCI), 48 h
SK-MEL-5 = tested on: SK-MEL-5
DLD-1 = tested on: DLD-1
MOLT-4 = tested on: MOLT-4
SW-620 = tested on: SW-620
A498 = tested on: A498
786-0 = tested on: 786-0
SF-539 = tested on: SF-539
HOP-62 = tested on: HOP-62
ACHN = tested on: ACHN
COLO 205 = tested on: COLO 205
CAKI-1 = tested on: CAKI-1
Malme-3M = tested on: Malme-3M
PC-3 = tested on: PC-3
UACC-62 = tested on: UACC-62
RXF 393 = tested on: RXF 393
MDA-MB-435 = tested on: MDA-MB-435
DMS-273 = tested on: DMS-273
HL-60 = tested on: HL-60
HT-29 = tested on: HT-29
BT-549 = tested on: BT-549

SMILES	GI50 (SK-MEL-5)	GI50 (DLD-1)	GI50 (MOLT-4)	GI50 (SW-620)	GI50 (A498)	GI50 (786-0)	GI50 (SF-539)	GI50 (HOP-62)	GI50 (ACHN)	GI50 (COLO 205)	GI50 (CAKI-1)	GI50 (Malme-3M)	GI50 (PC-3)	GI50 (UACC-62)	GI50 (RXF 393)	GI50 (MDA-MB-435)	GI50 (DMS-273)	GI50 (HL-60)	GI50 (HT-29)	GI50 (BT-549)
CC(C)CC(NC(=O)C(CC(C)C)NC(=O)C(Cc1c[nH]cn1)NC(=O)C(C)NC(=O)C(NC(=O)C(C)NC(=O)C(Cc1c[nH]c2ccccc12)NC(=O)C(CCC(=O)O)NC(=O)C(N)Cc1ccccc1)C(C)C)C(N)=O (stereo not given) (H-FEWAVAHLL-NH2; configuration not given here)	> 12.5 µM (inactive)	> 100 µM (inactive)	> 12.5 µM (inactive)	> 12.5 µM (inactive)	> 12.5 µM (inactive)	> 12.5 µM (inactive)	> 12.5 µM (inactive)	> 12.5 µM (inactive)	> 100 µM (inactive)	> 12.5 µM (inactive)	> 12.5 µM (inactive)	> 12.5 µM (inactive)	> 12.5 µM (inactive)	> 12.5 µM (inactive)	> 12.5 µM (inactive)	> 12.5 µM (inactive)	> 100 µM (inactive)	> 12.5 µM (inactive)	> 12.5 µM (inactive)	
Cc1cc(NC(=O)NC(=O)c2ccccc2N)ccc1Oc1ncc(Br)cn1	< 0.01 µM (active)	< 0.0161 µM (active)	< 0.0135 µM (active)	< 0.0103 µM (active)	< 0.0802 µM (active)	< 0.0119 µM (active)	< 0.011 µM (active)	0.0118 µM (active)	0.11 µM (active)	< 0.0104 µM (active)	< 0.01 µM (active)	< 0.01 µM (active)	< 0.01 µM (active)	0.0347 µM (active)	0.0244 µM (active)	< 0.01 µM (active)	< 0.0316 µM (active)	< 0.01 µM (active)	< 0.0103 µM (active)	< 0.01 µM (active)
C=C1C(=O)OC2CC3(C)OC3CC/C(C)=C/C(OC(C)=O)C12 (stereo not given)	8.02 µM (inactive)	2.75 µM (inactive)	3.37 µM (inactive)	1.72 µM (inactive)	15.8 µM (inactive)	4.6 µM (inactive)	6.37 µM (inactive)	18.7 µM (inactive)	11.2 µM (inactive)	1.75 µM (inactive)	2.13 µM (inactive)	2.55 µM (inactive)	13.2 µM (inactive)	9.89 µM (inactive)	4.79 µM (inactive)	12.6 µM (inactive)	14.9 µM (inactive)	1.41 µM (inactive)	4.15 µM (inactive)	9.71 µM (inactive)
O=C1NC2(CCCCC2)C2CCCCC=C12 (stereo not given)	> 100 µM (inactive)	> 100 µM (inactive)	> 100 µM (inactive)	> 100 µM (inactive)	> 100 µM (inactive)	> 100 µM (inactive)	> 100 µM (inactive)	> 100 µM (inactive)	> 100 µM (inactive)	> 100 µM (inactive)	> 100 µM (inactive)	> 100 µM (inactive)		> 100 µM (inactive)	> 100 µM (inactive)		> 100 µM (inactive)	> 100 µM (inactive)	> 100 µM (inactive)	
COc1cccc(/C=N\NC(=O)C(C)SC(C)C(=O)N/N=C/c2cccc(OC)c2)c1 (stereo not given)	56.1 µM (inactive)	58.2 µM (inactive)	39.4 µM (inactive)	57.8 µM (inactive)	13 µM (inactive)	17.3 µM (inactive)	> 89.1 µM (inactive)	16 µM (inactive)	18.9 µM (inactive)	24.6 µM (inactive)	34.3 µM (inactive)	42 µM (inactive)		> 54.2 µM (inactive)	11.1 µM (inactive)		33 µM (inactive)	> 62.1 µM (inactive)	> 66.8 µM (inactive)	
O=C(O)C1OC(n2cc(F)c(=O)[nH]c2=O)CC1O (stereo not given)	32.4 µM (inactive)	> 100 µM (inactive)	7.73 µM (inactive)	> 86.5 µM (inactive)	10.1 µM (inactive)	15.6 µM (inactive)	1.87 µM (inactive)	5.22 µM (inactive)	2.46 µM (inactive)	61.5 µM (inactive)	> 39.5 µM (inactive)	> 100 µM (inactive)	51.8 µM (inactive)	6.15 µM (inactive)	> 87.9 µM (inactive)	> 93.1 µM (inactive)	12.9 µM (inactive)	30.8 µM (inactive)	63.8 µM (inactive)	99.1 µM (inactive)
Cc1cc(N(CCC#N)CCC#N)ccc1/C=C(\N=[N+]=[N-])C(=O)NC(=O)COc1ccccc1	> 100 µM (inactive)	> 100 µM (inactive)	> 100 µM (inactive)	> 100 µM (inactive)	> 100 µM (inactive)	> 100 µM (inactive)	> 67.1 µM (inactive)	> 100 µM (inactive)	> 100 µM (inactive)	> 100 µM (inactive)	> 100 µM (inactive)	> 100 µM (inactive)		> 100 µM (inactive)	> 46.3 µM (inactive)		> 100 µM (inactive)	> 100 µM (inactive)	> 100 µM (inactive)	
